How the values were obtained:
human α-thrombin = biological target: T1, human α-thrombin (Homo sapiens, UniProt P00734); assay: Enzymatic assay for thrombin (fluorogenic peptide substrate Boc-VPR-AMC); type: biochemical
T1 construct: enzyme (human α-thrombin (BioPharm® Lab.)) in assay buffer; purchased BioPharm® Lab
Protocol: The thrombin assay utilizes a fluorogenic peptide substrate (Boc-VPR-AMC (R&D Systems) and was run at room temperature in an assay buffer containing 20 mM Hepes, pH 7.4, 140 mM NaCl and 0.1% Tween 20. Assay parameters were adjusted such that the assay was linear with respect to time, enzyme, and substrate concentrations. Under these optimized assays conditions, IC50 values were equivalent to Ki values, except in a few cases of “tight binding” inhibitors. Cases of “tight binding” or possible “slow binding” inhibitors were handled by the methods described in Copeland R. A. (2013) Evaluation of Enzyme Inhibitors in Drug Discovery. 2nd Ed. John Wiley and Sons, Inc., Chapters 5-7.
The thrombin assay protocol was carried out as follows. Test compounds were serially diluted in DMSO and then 100 nL of each dilution was transferred to the assay plate(s). 10 μL of Assay Buffer was added, followed by 15 μL of enzyme (human α-thrombin (BioPharm® Lab.)) in assay buffer. 15 μL of substrate in assay buffer was then added and the sample mixed to start the reaction. After 20 min at room temperature, 15 μL of a stop solution (0.1 M acetic acid) was added, the sample was mixed, and the plates were read on a SpectraMax® i3x Microplate Reader with the data exported as Excel files. Each assay plate included a “no inhibitor” (DMSO only) control, a “no enzyme” control, and a reference inhibitor control. % Activity values=100*(ave. test comp. fluorescence−ave. “no enz” fluorescence)/(ave. “DMSO only” fluorescence−ave. “no enz” fluorescence). IC50 and Ki values were very reproducible, with values falling well within ±2-fold.

MASP-2 (CCP1-CCP2-SP) = biological target: T2, MASP-2 (CCP1-CCP2-SP) (Homo sapiens, UniProt O00187); assay: Enzymatic assay for MASP-2 inhibitory activity (fluorogenic substrate); type: biochemical
T2 construct: 15 μL of Enzyme MASP-2 (CCP1-CCP2-SP) in Assay Buffer
T2 sequence (O00187 445-686 limits assumed): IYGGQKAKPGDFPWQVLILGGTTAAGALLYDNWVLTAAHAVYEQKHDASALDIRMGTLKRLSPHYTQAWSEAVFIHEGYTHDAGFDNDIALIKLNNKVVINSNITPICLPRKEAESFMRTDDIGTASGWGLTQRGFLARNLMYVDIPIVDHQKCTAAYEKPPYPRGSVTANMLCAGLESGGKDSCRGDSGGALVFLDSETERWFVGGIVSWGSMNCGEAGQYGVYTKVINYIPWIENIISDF
T2 sequence (O00187 287-444 partner limits assumed): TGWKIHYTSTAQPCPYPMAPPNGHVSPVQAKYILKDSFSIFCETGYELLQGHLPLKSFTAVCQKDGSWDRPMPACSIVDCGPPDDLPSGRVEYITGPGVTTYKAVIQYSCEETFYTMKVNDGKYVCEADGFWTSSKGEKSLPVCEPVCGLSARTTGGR
Protocol: The MASP-2 assay utilizes a fluorogenic substrate, based on the cleavage site for its natural substrate C2. The assay was run at room temperature in an assay buffer containing 20 mM HEPES, pH 7.4, 140 mM NaCl and 0.1% Tween 20. Assay parameters were adjusted such that the assay was linear with respect to time, enzyme, and substrate concentrations. Under the optimized assays conditions, IC50 values were equivalent to Ki values, except in the few cases of “tight binding” inhibitors. Cases of “tight binding” or possible “slow binding” inhibitors were handled by the methods described in Copeland R. A. (2013) Evaluation of Enzyme Inhibitors in Drug Discovery. 2nd Ed., John Wiley and Sons, Inc., Chapters 5-7.
The MASP-2 assay protocol was carried out as follows. Test compounds were serially diluted in DMSO and then 100 nL of each dilution was transferred to the assay plate(s). 10 μL of Assay Buffer was added, followed by 15 μL of Enzyme MASP-2 (CCP1-CCP2-SP) in Assay Buffer. 15 μL of Substrate in Assay Buffer was then added and the mixture was mixed to start the reaction. After 20 min at room temperature, 15 μL of a stop solution (0.1 M acetic acid) was added, the sample was mixed, and the plates were read on a SpectraMax i3x Microplate Reader with the data exported as an Excel file. Each assay plate included a “no inhibitor” (DMSO only) control, a “no enzyme” control, and a reference inhibitor control. % Activity values=100*(average test comp. fluorescence−average “no enzyme” fluorescence)/(average “DMSO only” fluorescence−average “no enzyme” fluorescence). IC50 and Ki replicate values were very reproducible, with values well within ±2-fold.

## CCc1cccc(CNc2ncc3n(c2=O)[C@H](C(=O)NCc2cc4cnccc4[nH]2)CC3)c1 [Compound 45, (S)-N-((1H-pyrrolo[3,2-c]pyridin-2-yl)methyl)-3-((3-ethylbenzyl)amino)-4-oxo-4,6,7,8-tetrahydropyrrolo[1,2-a]pyrazine-6-carboxamide]
Human α-thrombin
  Ki: < 500 nM
MASP-2 (CCP1-CCP2-SP)
  Ki: < 500 nM

## CCc1cccc(CNc2ncc3n(c2=O)[C@H](C(=O)NCc2ccc(N)nc2C)CC3)c1 [Compound 46, (S)-N-((6-amino-2-methylpyridin-3-yl)methyl)-3-((3-ethylbenzyl)amino)-4-oxo-4,6,7,8-tetrahydropyrrolo[1,2-a]pyrazine-6-carboxamide]
Human α-thrombin
  Ki: < 500 nM
MASP-2 (CCP1-CCP2-SP)
  Ki: < 500 nM

## Cc1nc(N)ccc1CNC(=O)[C@@H]1CCc2cnc(NCc3cccc(CO)c3)c(=O)n21 [Compound 47, (S)-N-((6-amino-2-methylpyridin-3-yl)methyl)-3-((3-(hydroxymethyl)benzyl)amino)-4-oxo-4,6,7,8-tetrahydropyrrolo[1,2-a]pyrazine-6-carboxamide]
Human α-thrombin
  Ki: < 500 nM
MASP-2 (CCP1-CCP2-SP)
  Ki: < 500 nM

## COc1cc(C)cc(CNc2ncc3n(c2=O)[C@H](C(=O)NCc2ccc(N)nc2C)CC3)c1 [Compound 49, (S)-N-((6-amino-2-methylpyridin-3-yl)methyl)-3-((3-methoxy-5-methylbenzyl)amino)-4-oxo-4,6,7,8-tetrahydropyrrolo[1,2-a]pyrazine-6-carboxamide]
Human α-thrombin
  Ki: < 500 nM
MASP-2 (CCP1-CCP2-SP)
  Ki: < 500 nM

## Cc1cc(C)cc(CNc2ncc3n(c2=O)[C@H](C(=O)NCc2cc4cnc(C)cc4[nH]2)CC3)c1 [Compound 50, (S)-3-((3,5-dimethylbenzyl)amino)-N-((6-methyl-1H-pyrrolo[3,2-c]pyridin-2-yl)methyl)-4-oxo-4,6,7,8-tetrahydropyrrolo[1,2-a]pyrazine-6-carboxamide]
Human α-thrombin
  Ki: 10000 to 25000 nM
MASP-2 (CCP1-CCP2-SP)
  Ki: < 500 nM

## COc1cc(C)cc(CNc2ncc3n(c2=O)[C@H](C(=O)NCc2cc4cnc(C)cc4[nH]2)CC3)c1 [Compound 51, (S)-3-((3-methoxy-5-methylbenzyl)amino)-N-((6-methyl-1H-pyrrolo[3,2-c]pyridin-2-yl)methyl)-4-oxo-4,6,7,8-tetrahydropyrrolo[1,2-a]pyrazine-6-carboxamide]
Human α-thrombin
  Ki: 2500 to 10000 nM
MASP-2 (CCP1-CCP2-SP)
  Ki: < 500 nM

## Cc1ccccc1CNc1ncc2n(c1=O)[C@H](C(=O)NCc1ccc(N)nc1C)CC2 [Compound 52, (S)-N-((6-amino-2-methylpyridin-3-yl)methyl)-3-((2-methylbenzyl)amino)-4-oxo-4,6,7,8-tetrahydropyrrolo[1,2-a]pyrazine-6-carboxamide]
Human α-thrombin
  Ki: < 500 nM
MASP-2 (CCP1-CCP2-SP)
  Ki: < 500 nM

## Cc1ccccc1CNc1ncc2n(c1=O)[C@H](C(=O)NCc1cc3cnccc3[nH]1)CC2 [Compound 53, (S)-N-((1H-pyrrolo[3,2-c]pyridin-2-yl)methyl)-3-((2-methylbenzyl)amino)-4-oxo-4,6,7,8-tetrahydropyrrolo[1,2-a]pyrazine-6-carboxamide]
Human α-thrombin
  Ki: 500 to 2500 nM
MASP-2 (CCP1-CCP2-SP)
  Ki: < 500 nM

## O=C(NCc1cc2cnccc2[nH]1)[C@@H]1CCc2cnc(NCc3cc(F)cc(F)c3)c(=O)n21 [Compound 54, (S)-N-((1H-pyrrolo[3,2-c]pyridin-2-yl)methyl)-3-((3,5-difluorobenzyl)amino)-4-oxo-4,6,7,8-tetrahydropyrrolo[1,2-a]pyrazine-6-carboxamide]
Human α-thrombin
  Ki: 500 to 2500 nM
MASP-2 (CCP1-CCP2-SP)
  Ki: < 500 nM

## Cc1ccc(C)c(CNc2ncc3n(c2=O)[C@H](C(=O)NCc2ccc(N)nc2C)CC3)c1 [Compound 55, (S)-N-((6-amino-2-methylpyridin-3-yl)methyl)-3-((2,5-dimethylbenzyl)amino)-4-oxo-4,6,7,8-tetrahydropyrrolo[1,2-a]pyrazine-6-carboxamide]
Human α-thrombin
  Ki: < 500 nM
MASP-2 (CCP1-CCP2-SP)
  Ki: < 500 nM

## Cc1ccc(C)c(CNc2ncc3n(c2=O)[C@H](C(=O)NCc2cc4cnccc4[nH]2)CC3)c1 [Compound 56, (S)-N-((1H-pyrrolo[3,2-c]pyridin-2-yl)methyl)-3-((2,5-dimethylbenzyl)amino)-4-oxo-4,6,7,8-tetrahydropyrrolo[1,2-a]pyrazine-6-carboxamide]
Human α-thrombin
  Ki: 500 to 2500 nM
MASP-2 (CCP1-CCP2-SP)
  Ki: < 500 nM
